Like-named read-outs stand apart in the source and are kept apart here.
Legend:
[1] = tested on: tobacco leaf disks containing SEQ ID No. 7 (Kordia algicida HPPD); test: Leaf disk regeneration on HPPD inhibitor media; type: cell-based, Nicotiana tabacum; details: 6 weeks
Procedure: (§1) At the end of the experiments the level of regeneration was evaluated as followed:
(§2) “−” means that the leaf disks looked the same as leaf disk from wild type tobacco plants on media supplemented with the inhibitor mentioned above.
(§3) “++++” means that the leaf disks looked like the leaf disks from the wild type tobacco plants on media without inhibitor.
(§4) “+”, “++”, and “+++” indicate regenerated leaf disks were heavily (+), medium (++) and less (+++) affected by the presence of the inhibitors.

[2] = tested on: tobacco leaf disks containing SEQ ID No. 11 (Arabidopsis HPPD); test: Leaf disk regeneration on HPPD inhibitor media; type: cell-based, Nicotiana tabacum; details: 6 weeks
Procedure: as §1, §2, §3, §4

[3] = tested on: tobacco plants containing FMP27t-h, PAT and 2mEPSPS (pFCO116); test: Glasshouse response of three-tolerance-gene tobacco to herbicides, injury classes; type: in vivo, Nicotiana tobacum; details: 9 DAT
Procedure: A binary vector for tobacco transformation is, for example, constructed with the CaMV35 promoter driving the expression of the gene FMP27t-h (SEQ ID No. 15), with a codon usage optimized for the expression in dicotyledoneous plants and at its 5′extremity was added a sequence coding for an OTP, and further upstream a sequence TEV (Tobacco etch virus) to improve the stability of the mRNA in plants followed by the CaMV35S terminator. The nucleotide sequence of the gene FMP27t-h is given in SEQ ID No. 15. Additionally, the transformation vector also contains a PAT gene cassette in which the gene is driven by a CaVM35S promoter and followed by a CaMV35S terminator for glufosinate based selection during the transformation process and a 2mEPSPS gene cassette in which the gene is driven by an histone promoter from Arabidopsis to confer tolerance to the herbicide glyphosate to the transformed plants (see FIG. 3 H). The binary vector was called pFCO116. The above vector was used to transform leaf disc obtained from Nicotiana tobacum plants, according to Example 3.
Transgenic tobacco plants were transferred to the greenhouse and treated with glyphosate at a rate of 1121 g AI/ha. Seeds were produced from such tolerant tobacco plants and harvested. These seeds were put on soil to germinate in the glasshouse. Three to four weeks later, 50 plantlets per event were transferred to single pots. Two weeks later, plants of a size 4-6 cm were sprayed either with
[…] […] Non-transgenic tobacco plants were completely killed by treatment using one or more of the above herbicides.

[4] = target: Kordia algicida HPPD "SEQ ID No. 5" (Kordia algicida, UniProt A9DQF2); test: biochemical; details: for inhibition at 5 µM: read-out: percentage of inhibition compared to the activity in absence of the inhibitor
[5] = target: Kordia algicida HPPD "SEQ ID No. 5" (FMP27e) (Kordia algicida, UniProt A9DQF2); test: HPLC assay of HPPD in vitro kinetic properties; type: biochemical
Procedure: (§5) Km, Vmax, and kcat values for different HPPD enzyme preparations and Ki, K1=Kon, and K−1=Koff for different HPPD inhibitors were determined using a HPLC assay for measurements of HPPD activity. […] All assays were started by the addition of HPPD enzyme to the assay mixture and stopped at a series of times between 0 and 240 s by addition of 200 μl of the reaction mixture to reaction assay tubes containing 20 μl 10% perchloric acid. Precipitated protein was pelleted by a 5 minute centrifugation at 10,000 g.
(§6) For Km and Vmax value determinations the initial rates of the HPPD reaction at different substrate concentrations were determined from plots of HGA formed versus time and fitted to the Michaelis-Menten equation for unireactant enzymes using the ID Business Solutions Ltd. (idbs.com) XLfit software suite.

[6] = target: T1, Arabidopsis thaliana HPPD "SEQ ID No. 10" (Arabidopsis thaliana, UniProt P93836); test: HPLC assay of HPPD in vitro kinetic properties; type: biochemical; details: substrate HPP varied 10-400 μM; enzyme SEQ ID No. 10
T1 construct: made in house; host or cells: E. coli K-12 BL21 (pQE30-AtHPPD)
T1 sequence (P93836 with tags, fused parts or gaps): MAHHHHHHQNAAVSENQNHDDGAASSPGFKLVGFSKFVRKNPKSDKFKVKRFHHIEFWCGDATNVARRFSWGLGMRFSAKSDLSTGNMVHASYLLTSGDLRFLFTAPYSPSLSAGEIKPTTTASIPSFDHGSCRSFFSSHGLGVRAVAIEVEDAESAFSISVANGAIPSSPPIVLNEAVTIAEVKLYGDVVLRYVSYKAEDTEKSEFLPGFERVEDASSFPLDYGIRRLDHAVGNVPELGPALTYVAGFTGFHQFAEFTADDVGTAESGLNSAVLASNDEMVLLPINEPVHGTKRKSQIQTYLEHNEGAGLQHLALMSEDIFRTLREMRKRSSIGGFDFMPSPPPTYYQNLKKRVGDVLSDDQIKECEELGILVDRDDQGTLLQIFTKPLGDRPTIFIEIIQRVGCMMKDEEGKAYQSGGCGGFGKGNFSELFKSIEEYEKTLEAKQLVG
Procedure: as §5, §6

[7] = tested on: wild type tobacco plants; test: Glasshouse response to bicyclopyrone, injury classes; type: in vivo, Nicotiana tabacum; details: 100 g AI/ha, 7 DAT; WT
Text: (§7) Seeds of wild type tobacco plants and T1 tobacco plants carrying the gene from Kordia algicida FMP27e coding for HPPD were sown on MS media (Murashige and Skoog 1964) supplemented with […] kanamycin. After 4 weeks, rooted green plantlets were transferred to soil and grown for 3 weeks in the glasshouse as described above then sprayed with a mixture containing bicyclopyrone (100 g AI/ha), ammonium sulfate and methyl ester raps oil. The plants were classified in two categories based on the phenotype developed in response to the herbicide seven days after the treatment. […] In this case, only plants containing at least one T-DNA were exposed to the herbicidal treatment.

[8] = tested on: T1 tobacco plants carrying FMP27e; test: as above; type: in vivo, Nicotiana tabacum; details: 100 g AI/ha, 7 DAT
Text: as §7

[9] = target: T1, Arabidopsis thaliana HPPD "SEQ ID No. 10"; test: HPPD activity in presence of HPPD inhibitors (pI50, % inhibition); type: biochemical
[10] = 5.0 × 10^−6M inhibitor, enzyme SEQ ID No. 5
[11] = substrate HPP varied 10-400 μM, enzyme SEQ ID No. 5

Sequence of Kordia algicida HPPD "SEQ ID No. 5" (FMP27e) (A9DQF2 entry or part of it): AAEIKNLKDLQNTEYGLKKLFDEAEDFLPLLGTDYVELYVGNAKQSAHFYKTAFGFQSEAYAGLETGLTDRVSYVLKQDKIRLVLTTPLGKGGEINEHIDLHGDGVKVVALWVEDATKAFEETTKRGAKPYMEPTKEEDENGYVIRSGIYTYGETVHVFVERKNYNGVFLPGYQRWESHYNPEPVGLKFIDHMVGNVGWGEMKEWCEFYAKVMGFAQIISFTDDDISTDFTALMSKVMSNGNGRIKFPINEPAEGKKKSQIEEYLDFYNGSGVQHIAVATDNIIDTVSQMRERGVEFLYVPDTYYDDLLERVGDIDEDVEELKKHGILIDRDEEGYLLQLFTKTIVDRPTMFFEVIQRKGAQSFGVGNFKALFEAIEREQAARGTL
Sequence of Kordia algicida HPPD "SEQ ID No. 5" (A9DQF2 entry or part of it): as above

In the case of `CS(=O)(=O)c1ccc(C(=O)C2C(=O)CCCC2=O)c([N+](=O)[O-])c1` [Mesotrione, 2-[4-(methylsulfonyl)-2-nitrobenzoyl]-1,3-cyclohexanedione], the “level of leaf disk regeneration” value ([1]; inhibitor 10^−6 M) is reported as “+” and the “level of leaf disk regeneration” value ([2]; inhibitor 10^−6 M) is reported as “−”.

With `O=C(O)CNCP(=O)(O)O` [Glyphosate] the “Class I, number of plants (no injuries)” value ([3]; 1121 g AI/ha, line 639) was 9, the “Class II, number of plants (injury: 10-40%)” value (“Class II … (injury: 10-40%)” below) ([3]; 1121 g AI/ha, line 639) was 0 and the “Class III, number of plants (injury: 41-100%)” value (“Class III … (injury: 41-100%)” below) ([3]; 1121 g AI/ha, line 639) was 1. The “Class I, number of plants (no injuries)” value ([3]; 1121 g AI/ha, line 714) was 10, the “Class II … (injury: 10-40%)” value ([3]; 1121 g AI/ha, line 714) was 0 and the “Class III … (injury: 41-100%)” value ([3]; 1121 g AI/ha, line 714) was 0. For the same compound, the “Class I, number of plants (no injuries)” value ([3]; 1121 g AI/ha, line 717) was 10, the “Class II … (injury: 10-40%)” value ([3]; 1121 g AI/ha, line 717) was 0 and the “Class III … (injury: 41-100%)” value ([3]; 1121 g AI/ha, line 717) was 0.

With `CS(=O)(=O)c1cc(C(F)(F)F)ccc1C(=O)C(C#N)C(=O)C1CC1` (centres unmarked) [Diketonitrile, 2-cyano-3-cyclopropyl-1-(2-methylsulphonyl-4-trifluoromethylphenyl)-propane-1,3-dione] the “level of leaf disk regeneration” value ([1]; diketonitrile 5.10^−6 M) was “+”, the “level of leaf disk regeneration” value ([2]; diketonitrile 5.10^−6 M) was “−” and the inhibition at 5 µM [4, 10] was 80%. The IC50 ([4]; read-out: pI50 (converted)) was 2 µM and the Ki ([5]; read-out: Ki) was 15 µM.

In the case of `CP(=O)(O)CCC(N)C(=O)O` (centres unmarked) [Glufosinate-ammonium], the “Class I, number of plants (no injuries)” value ([3]; 1000 g AI/ha, line 639) is reported as 10, the “Class II … (injury: 10-40%)” value ([3]; 1000 g AI/ha, line 639) is reported as 0 and the “Class III … (injury: 41-100%)” value ([3]; 1000 g AI/ha, line 639) is reported as 0. For the same compound, the “Class I, number of plants (no injuries)” value ([3]; 1000 g AI/ha, line 714) was 10, the “Class II … (injury: 10-40%)” value ([3]; 1000 g AI/ha, line 714) was 0 and the “Class III … (injury: 41-100%)” value ([3]; 1000 g AI/ha, line 714) was 0. The “Class I, number of plants (no injuries)” value ([3]; 1000 g AI/ha, line 717) was 10, the “Class II … (injury: 10-40%)” value ([3]; 1000 g AI/ha, line 717) was 0 and the “Class III … (injury: 41-100%)” value ([3]; 1000 g AI/ha, line 717) was 0.

Compound `O=C(O)C(=O)Cc1ccc(O)cc1` [HPP, para-hydroxyphenylpyruvate] has a Km [5, 11] of 292 µM, a Vmax [5, 11] of 13.6 µM and a Km [6] of 6.3 µM. For the same compound, the Vmax [6] was 1.2 µM.

`Cc1ccc(C(=O)COc2c(C(=O)c3ccc(Cl)c(C)c3Cl)c(C)nn2C)cc1` [Benzofenap] showed an inhibition at 5 µM [4, 10] of 97% and an IC50 ([4]; read-out: pI50 (converted)) of less than 2.51 µM.

`CS(=O)(=O)c1ccc(C(=O)C2C(=O)CCCC2=O)c(Cl)c1COCC1CCCO1` (centres unmarked) [Tefuryltrione, 2-[2-chloro-4-(methylsulfonyl)-3-[[(tetrahydro-2-furanyl)methoxy]methyl]benzoyl]-1,3-cyclohexanedione] showed an inhibition at 5 µM [4, 10] of 73% and an IC50 ([4]; read-out: pI50 (converted)) of 1.58 µM.

In the case of `COCCOCc1nc(C(F)(F)F)ccc1C(=O)C1=C(O)C2CCC(C2)C1=O` (centres unmarked) [Bicyclopyrone, 4-hydroxy-3-[[2-[(2-methoxyethoxy)methyl]-6-(trifluoromethyl)-3-pyridinyl]carbonyl]bicyclo[3.2.1]oct-3-en-2-one], the “level of leaf disk regeneration” value ([1]; inhibitor 10^−6 M) is reported as “++”, the “level of leaf disk regeneration” value ([2]; inhibitor 10^−6 M) is reported as “−” and the “% of tolerant plant” value [7] is reported as 0%. The “Class I, number of plants (injury: 0-30%)” value (from here on “Class I … (injury: 0-30%)”) [7] was 0, the “Class II, number of plants (injury: 31-100%)” value (“Class II … (injury: 31-100%)” for short) [7] was 12 and the “% of tolerant plant” value ([8]; line 121) was 39%. The “Class I … (injury: 0-30%)” value ([8]; line 121) was 90, the “Class II … (injury: 31-100%)” value ([8]; line 121) was 138 and the “% of tolerant plant” value ([8]; line 129) was 30%. For the same compound, the “Class I … (injury: 0-30%)” value ([8]; line 129) was 47, the “Class II … (injury: 31-100%)” value ([8]; line 129) was 111 and the “% of tolerant plant” value ([8]; line 218) was 64%. The “Class I … (injury: 0-30%)” value ([8]; line 218) was 100, the “Class II … (injury: 31-100%)” value ([8]; line 218) was 56 and the IC50 ([4]; read-out: pI50 (converted)) was 10 µM. The inhibition at 5 µM [4] was 38%.

`Cc1nn(C)c(O)c1C(=O)c1ccc(C(F)(F)F)cc1S(C)(=O)=O` [Pyrasulfotole] gave an IC50 [4] of 12.6 µM, an inhibition at 5 µM [4] of 43% and an IC50 [9] of 3.98 µM. It also gave an inhibition at 5 µM ([9]; read-out: percentage of inhibition compared to the activity in absence of the inhibitor) of 69%.

— patent US20150159169A1, “Plants Tolerant to HPPD Inhibitor Herbicides” (Bayer CropScience AG, priority 2009, published 2015)
